Measured values published in ChEMBL document CHEMBL1139380, “Edaravone derivatives containing NO-donor functions” (J Med Chem, 2009).
Active and inactive are the calls of the source. No cut-off for these calls is given here.

Columns and labels:
Liver microsomes [1] = experiment: Antioxidant activity against […]/ascorbate-induced lipid peroxidation in Wistar rat liver microsomal membrane at 05 to 15 uM by TBARS assay; assay type: functional; conditions: Microsome
physchem [2] = conditions: octanol/water
Description: Lipophilicity, neutral log P of the compound

Aorta [3] = experiment: tissue or blood; conditions: Rattus norvegicus, Wistar
Description: (§1) Vasodilation activity in Wistar rat aorta assessed as relaxation of phenylephrine-induced contraction

[4] = octanol/water
Description: Lipophilicity, ionic log P by shake flask method

physchem [5] = conditions: octanol/water, pH 7.4
Liver microsomes [6] = test system: Liver microsomes
Description: Antioxidant activity against Fe2SO4/ascorbate-induced lipid peroxidation in Wistar rat liver microsomal membrane by TBARS assay

physchem [7] = experiment: physchem
Description: Dissociation constant, pKa by potentiometric titration

Aorta [8] = test system: Aorta
Description: as §1

| Structure (SMILES) | Activity (Liver microsomes [1]) | logP (physchem [2]) | EC50 (Aorta [3]) [nM] | logPi [4] | logD (physchem [5]) | IC50 (Liver microsomes [6]) [nM] | pKa (physchem [7]) | EC50 (Aorta [8]) |
| --- | --- | --- | --- | --- | --- | --- | --- | --- |
| CCOc1no[n+]([O-])c1S(=O)(=O)c1ccccc1 | inactive | 3.15 | 12 | – | – | – | – | – |
| COc1no[n+]([O-])c1-c1ccccc1 | inactive | 2.47 | 5600 | – | – | – | – | – |
| CC1=NN(c2ccc(OCCCCCCO[N+](=O)[O-])cc2)C(=O)C1 | – | 3.34 | 980 | 0.15 | 2.67 | 2100 | 7.12 | – |
| CC1=NN(c2ccc(OCCCOc3no[n+]([O-])c3S(=O)(=O)c3ccccc3)cc2)C(=O)C1 | – | 3.62 | 77 | 0.4 | 3.16 | 3800 | 7.12 | – |
| CC1=NN(c2ccc(OCc3no[n+]([O-])c3C(N)=O)cc2)C(=O)C1 | – | 0.92 | 2800 | – | 0.48 | 7900 | 7.08 | – |
| CC1=NN(c2ccccc2)C(=O)C1 [EDARAVONE] | – | 1.28 | – | – | 0.78 | 17000 | 6.9 | Not Active |
| COCCCCCCO[N+](=O)[O-] | inactive | 2.23 | 1400 | – | – | – | – | – |
| COc1ccc(N2N=C(C)CC2=O)cc1 | – | 1.19 | – | – | 0.77 | 20000 | 7.06 | Not Active |
| CC1=NN(c2ccc(OCCCO[N+](=O)[O-])cc2)C(=O)C1 | – | 1.9 | 1100 | -1.07 | 1.59 | 3400 | 7.11 | – |
| COCCCO[N+](=O)[O-] | inactive | 1.01 | 9600 | – | – | – | – | – |
| COCc1no[n+]([O-])c1C#N | inactive | 0.83 | 9.5 | – | – | – | – | – |
| COCc1no[n+]([O-])c1C(N)=O | inactive | 0.14 | 3900 | – | – | – | – | – |
| CC1=NN(c2ccc(OCc3no[n+]([O-])c3C#N)cc2)C(=O)C1 | – | 1.72 | 23 | -0.99 | 1.28 | 5800 | 7.06 | – |
| CC1=NN(c2ccc(OCCCCC(CO[N+](=O)[O-])O[N+](=O)[O-])cc2)C(=O)C1 (stereo not drawn) | – | 3.1 | 680 | 0.05 | 2.54 | 2900 | 7.15 | – |
